Numbers after ± are expanded uncertainties.
Key:
[1] = xn = mol fraction of the nth substance listed; conditions: 96.7 kPa, Liquid, Vibrating tube method
[2] = 96.7 kPa, Vibrating tube method

Row | Compound | mass density ([1]; 303.15 K, x2 = 0) | mass density ([1]; 308.15 K, x2 = 0) | mass density ([1]; 313.15 K, x2 = 0) | mass density ([1]; 318.15 K, x2 = 0) | mass density ([1]; 323.15 K, x2 = 0) | mass density ([1]; 328.15 K, x2 = 0) | mass density ([1]; 333.15 K, x2 = 0) | mass density ([1]; 338.15 K, x2 = 0) | mass density ([1]; 343.15 K, x2 = 0) | mass density ([1]; 348.15 K, x2 = 0) | mass density ([1]; 353.15 K, x2 = 0) | further results
1 | CC(=O)N(C)C [N,N-dimethylethanamide] + CCCCn1cc[n+](C)c1.[Cl-] | 931.85 ± 2 kg/m3 | 927.26 ± 2 kg/m3 | 922.66 ± 2 kg/m3 | 918.06 ± 2 kg/m3 | 913.44 ± 1.9 kg/m3 | 908.81 ± 1.9 kg/m3 | 904.16 ± 1.9 kg/m3 | 899.53 ± 1.9 kg/m3 | 894.87 ± 1.9 kg/m3 | 890.19 ± 1.9 kg/m3 | 885.51 ± 1.9 kg/m3 | 
2 | C[S+](C)[O-] [dimethyl sulfoxide] + CCCCn1cc[n+](C)c1.[Cl-] | 1090.29 ± 2.2 kg/m3 | 1085.28 ± 2.2 kg/m3 | 1080.3 ± 2.2 kg/m3 | 1075.31 ± 2.2 kg/m3 | 1070.32 ± 2.2 kg/m3 | 1065.33 ± 2.1 kg/m3 | 1060.34 ± 2.1 kg/m3 | 1055.34 ± 2.1 kg/m3 | 1050.35 ± 2.1 kg/m3 | 1045.34 ± 2.1 kg/m3 | 1040.33 ± 2.1 kg/m3 | 
3 | CN(C)C=O [dimethylformamide] + CCCCn1cc[n+](C)c1.[Cl-] | 939.18 ± 1.9 kg/m3 | 934.41 ± 1.9 kg/m3 | 929.64 ± 1.9 kg/m3 | 924.86 ± 1.9 kg/m3 | 920.07 ± 1.9 kg/m3 | 915.26 ± 1.8 kg/m3 | 910.44 ± 1.8 kg/m3 | 905.6 ± 1.8 kg/m3 | 900.74 ± 1.8 kg/m3 | 895.87 ± 1.8 kg/m3 | 890.98 ± 1.8 kg/m3 | 
4 | CCCCn1cc[n+](C)c1.[Cl-] [1-butyl-3-methylimidazolium chloride] + c1ccncc1 |  |  |  |  |  |  |  |  |  |  |  | mass density ([1]; 303.15 K, x1 = 1): 1079.41 ± 2.3 kg/m3; mass density ([1]; 308.15 K, x1 = 1): 1076.58 ± 2.3 kg/m3; mass density ([1]; 313.15 K, x1 = 1): 1073.78 ± 2.3 kg/m3; mass density ([1]; 318.15 K, x1 = 1): 1070.99 ± 2.3 kg/m3; mass density ([1]; 323.15 K, x1 = 1): 1068.19 ± 2.3 kg/m3; mass density ([1]; 328.15 K, x1 = 1): 1065.36 ± 2.3 kg/m3; mass density ([1]; 333.15 K, x1 = 1): 1062.6 ± 2.3 kg/m3; mass density ([1]; 338.15 K, x1 = 1): 1059.87 ± 2.3 kg/m3; mass density ([1]; 343.15 K, x1 = 1): 1057.15 ± 2.3 kg/m3; mass density ([1]; 348.15 K, x1 = 1): 1054.42 ± 2.3 kg/m3; mass density ([1]; 353.15 K, x1 = 1): 1051.69 ± 2.3 kg/m3
5 | CCCCn1cc[n+](C)c1.[Cl-] [1-butyl-3-methylimidazolium chloride] |  |  |  |  |  |  |  |  |  |  |  | mass density ([2]; 303.15 K, Metastable liquid): 1079.41 ± 2.3 kg/m3; mass density ([2]; 308.15 K, Metastable liquid): 1076.58 ± 2.3 kg/m3; mass density ([2]; 313.15 K, Metastable liquid): 1073.78 ± 2.3 kg/m3; mass density ([2]; 318.15 K, Metastable liquid): 1070.99 ± 2.3 kg/m3; mass density ([2]; 323.15 K, Metastable liquid): 1068.19 ± 2.3 kg/m3; mass density ([2]; 328.15 K, Metastable liquid): 1065.36 ± 2.3 kg/m3; mass density ([2]; 333.15 K, Metastable liquid): 1062.6 ± 2.3 kg/m3; mass density ([2]; 338.15 K, Metastable liquid): 1059.87 ± 2.3 kg/m3; mass density ([2]; 343.15 K, Liquid): 1057.15 ± 2.3 kg/m3; mass density ([2]; 348.15 K, Liquid): 1054.42 ± 2.3 kg/m3; mass density ([2]; 353.15 K, Liquid): 1051.69 ± 2.3 kg/m3

From the NIST ThermoML archive (doi:10.1021/acs.jced.7b00654)
